{"source": "ChEMBL document CHEMBL3217505", "about": "“Synthesis and biological evaluation of a new class of anti-brucella compounds targeting histidinol dehydrogenase: -O-arylketones and -S-arylketones derived from histidine” (Medchemcomm, 2011)"}
{"biological_target": "T1, Histidinol dehydrogenase (Brucella suis biovar 1 (strain 1330), UniProt Q8G2R2)", "T1 sequence (Q8G2R2 whole entry)": "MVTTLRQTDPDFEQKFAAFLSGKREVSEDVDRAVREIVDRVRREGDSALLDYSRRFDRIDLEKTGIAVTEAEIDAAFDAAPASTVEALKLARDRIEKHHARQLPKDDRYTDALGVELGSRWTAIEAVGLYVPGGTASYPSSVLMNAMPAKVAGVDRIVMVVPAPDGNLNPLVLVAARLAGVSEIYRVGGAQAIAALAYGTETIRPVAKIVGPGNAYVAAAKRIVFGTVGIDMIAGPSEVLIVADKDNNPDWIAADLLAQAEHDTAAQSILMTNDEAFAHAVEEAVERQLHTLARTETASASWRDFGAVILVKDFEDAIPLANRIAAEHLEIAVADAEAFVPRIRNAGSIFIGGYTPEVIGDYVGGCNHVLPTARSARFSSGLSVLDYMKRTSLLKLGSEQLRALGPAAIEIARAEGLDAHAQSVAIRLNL", "test": "Inhibition of Brucella suis 1330 His6-tagged HDH expressed in Escherichia coli BL21 (DE3) using L-histidinol as substrate assessed as NADH formation preincubated for 5 mins followed by substrate addition", "units": {"IC50": "nM"}}
{"compound": "N[C@@H](Cc1c[nH]cn1)C(=O)CS", "IC50": 2100}
{"compound": "N[C@@H](Cc1c[nH]cn1)C(=O)CSc1ccccc1", "IC50": 7100}
{"compound": "Cc1ccc(SCC(=O)[C@@H](N)Cc2c[nH]cn2)cc1", "IC50": 39500}
{"compound": "N[C@@H](Cc1c[nH]cn1)C(=O)CSc1ccc(F)cc1", "IC50": 3100}
{"compound": "N[C@@H](Cc1c[nH]cn1)C(=O)CSc1ccc2ccccc2c1", "IC50": 3300}
{"compound": "N[C@@H](Cc1c[nH]cn1)C(=O)CSc1ccc(Br)cc1", "IC50": 2800}
{"compound": "N[C@@H](Cc1c[nH]cn1)C(=O)CSc1c(F)c(F)c(F)c(F)c1F", "IC50": 19200}
{"compound": "N[C@@H](Cc1c[nH]cn1)C(=O)CO", "IC50": 24.3}
{"compound": "N[C@@H](Cc1c[nH]cn1)C(=O)COc1ccccc1", "IC50": 3650}
{"compound": "Cc1ccc(OCC(=O)[C@@H](N)Cc2c[nH]cn2)cc1", "IC50": 208}
{"compound": "N[C@@H](Cc1c[nH]cn1)C(=O)COc1ccc(F)cc1", "IC50": 4700}
{"compound": "N[C@@H](Cc1c[nH]cn1)C(=O)COc1ccc2ccccc2c1", "IC50": 108}
{"compound": "N[C@@H](Cc1c[nH]cn1)C(=O)COc1ccc(Br)cc1", "IC50": 1600}
{"compound": "N[C@@H](Cc1c[nH]cn1)C(=O)COc1c(F)c(F)c(F)c(F)c1F", "IC50": 2780}
